How the values were obtained:
Type in all cases: biochemical
human FAK = target: T1, human FAK (Homo sapiens, UniProt Q05397); test: FAK autophosphorylation inhibition, time resolved fluorescence (HTRF) assay; details: 10 μM (values without asterisk); read-out: FAK % inhib at 10 μM
T1 construct: The complete cDNA of human FAK; made in house; host or cells: baculovirus expression system (vector pFastBac HTc)
Description: The inhibitory activity of the compounds on FAK is determined by measuring the inhibition of the autophosphorylation of the enzyme using a time resolved fluorescence (HTRF) assay.
The complete cDNA of human FAK, the N-terminal end of which was labeled with histidine, was cloned into a baculovirus expression vector pFastBac HTc. The protein was expressed and purified to approximately 70% homogeneity.
The kinase activity is determined by incubating the enzyme (6.6 μg/ml) with various concentrations of test compound in a 50 mM Hepes buffer, pH=7.2, containing 10 mM MgCl2, 100 μM Na3VO4 and 15 μM d'ATP for 1 hour at 37° C. The enzyme reaction is stopped by adding Hepes buffer, pH=7.0, containing […], 133 mM EDTA and 0.1% BSA, and the labeling is carried out, over 1 to 2 hours at ambient temperature, by adding to this buffer an anti-Histidine antibody labeled with XL665 and a monoclonal antibody phosphospecific for tyrosine, conjugated to europium cryptate (Eu-K). The characteristics of the two fluorophores are available in G. Mathis et al., Anticancer Research, 1997, 17, pages 3011-3014. The transfer of energy from the excited europium cryptate to the XL665 acceptor is proportional to the degree of autophosphorylation of FAK. The long-lived signal specific for XL-665 is measured in a Packard Discovery plate counter. All the assays are carried out in duplicate and the mean of the two assays is calculated. The inhibition of the FAK autophosphorylation activity with compounds of the invention is expressed as percentage inhibition compared to a control whose activity is measured in the absence of test compound. The [signal at 665 nm/signal at 620 nm] ratio is used for the calculation of the % inhibition.

Aurora2 kinase = target: T2, Aurora2 kinase (Homo sapiens, UniProt O14965); test: Aurora2 kinase radioactivity scintillation assay using nickel chelate (NuMA substrate); details: 10 μM; read-out: Aurora2 % inhib at 10 μM
T2 construct: A complete recombinant Aurora2 enzyme; His tag (N); made in house; host or cells: E. coli
T2 sequence (O14965 1-403): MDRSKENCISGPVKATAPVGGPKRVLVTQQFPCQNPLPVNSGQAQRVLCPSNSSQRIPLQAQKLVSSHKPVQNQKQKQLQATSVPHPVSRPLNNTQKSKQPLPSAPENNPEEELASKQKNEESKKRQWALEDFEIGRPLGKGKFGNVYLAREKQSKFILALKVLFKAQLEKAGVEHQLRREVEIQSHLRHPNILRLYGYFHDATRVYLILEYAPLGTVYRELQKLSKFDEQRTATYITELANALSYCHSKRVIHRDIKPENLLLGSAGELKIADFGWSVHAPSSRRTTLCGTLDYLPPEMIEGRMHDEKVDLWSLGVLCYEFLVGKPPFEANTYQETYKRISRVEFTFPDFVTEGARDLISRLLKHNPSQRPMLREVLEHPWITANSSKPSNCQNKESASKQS
Description: The inhibitory effect of compounds with respect to the Aurora2 kinase is determined with a radioactivity scintillation assay using nickel chelate.
A complete recombinant Aurora2 enzyme, the N-terminal end of which was labeled with histidine, was expressed in E. coli and purified to a quality close to homogeneity.
The C-terminal fragment (Q1687-H2101) of a NuMA (Nuclear protein that associates with the Mitotic Apparatus) expressed in E. coli, and the N-terminal end of which was labeled with histidine, was purified by nickel chelate chromatography and used as substrate in the Aurora2 kinase assay. In order to determine the kinase activity, the NuMA substrate is equilibrated by chromatography on a Pharmacia PD10 column, in a buffer (50 mM Tris HCl, pH7.5, 50 mM NaCl, 10 mM MgCl2) to which 10% (v/v) of glycerol and 0.05% (w/v) of NP40 have been added.
The kinase acivitity of Aurora2 is measured by scintillation with nickel chelate (New England Nuclear, model SMP107). Each well contains 100 μl of the following solution: 0.02 μM of Aurora2; 0.5 μM of NuMA substrate; 1 μM of ATP to which 0.5 μCi of ATP-[^33P] has been added. The solutions are incubated for 30 minutes at 37° C. The assay buffer is then removed and the wells are rinsed twice with 300 μl of kinase buffer. The radioactivity is measured in each well using a Packard Model Top Count NXT device.
The background noise is deduced from the measurement of radioactivity by measuring, in duplicate, in wells containing the radioactive ATP alone containing buffered kinase treated in the same way as the other samples.
The activity of the control is determined by measuring, in duplicate, the radioactivity in the complete assay mixture (ATP, Aurora2 and the NuMA substrate) in the absence of test compound.
The inhibition of the Aurora2 with a compound of the invention is expressed as percentage inhibition of the control activity in the absence of test compound. Staurosporine is added to each plate as an inhibition control.

human KDR enzyme = target: T3, human KDR enzyme (Homo sapiens, UniProt P35968); test: KDR substrate (PLCγ) phosphorylation, scintillation assay; details: 10 μM; read-out: KDR % inhib at 10 μM
T3 construct: The cytoplasmic domain of the human KDR enzyme; GST; made in house; host or cells: SF21 insect cells (baculovirus)
T3 sequence (P35968 786-1356 limits assumed): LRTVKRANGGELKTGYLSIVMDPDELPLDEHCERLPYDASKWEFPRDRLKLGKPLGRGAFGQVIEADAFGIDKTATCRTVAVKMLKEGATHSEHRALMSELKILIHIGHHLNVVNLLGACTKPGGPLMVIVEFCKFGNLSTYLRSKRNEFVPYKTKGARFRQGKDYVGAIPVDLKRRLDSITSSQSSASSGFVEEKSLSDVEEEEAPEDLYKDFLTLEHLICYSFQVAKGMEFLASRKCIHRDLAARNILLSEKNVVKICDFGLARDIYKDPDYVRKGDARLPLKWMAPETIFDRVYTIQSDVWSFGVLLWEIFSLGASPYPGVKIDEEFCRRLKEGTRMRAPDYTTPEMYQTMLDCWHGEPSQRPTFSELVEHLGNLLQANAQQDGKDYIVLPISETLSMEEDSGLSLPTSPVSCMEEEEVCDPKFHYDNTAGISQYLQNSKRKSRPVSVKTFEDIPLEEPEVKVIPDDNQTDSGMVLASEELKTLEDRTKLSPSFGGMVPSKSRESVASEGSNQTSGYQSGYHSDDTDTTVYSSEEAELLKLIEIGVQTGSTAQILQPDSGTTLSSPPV
Description: The inhibitory effect of the compounds is determined in an assay of substrate phosphorylation by the KDR enzyme in vitro using a scintillation technique (96-well plate, NEN).
The cytoplasmic domain of the human KDR enzyme was cloned in the form of a GST fusion into the baculovirus expression vector pFastBac. The protein was expressed in SF21 cells and purified to approximately 60% homogeneity.
The KDR kinase activity is measured in 20 mM MOPS, 10 mM MgCl2, 10 mM MnCl2, 1 mM DTT, 2.5 mM EGTA, 10 mM β-glycerophosphate, pH=7.2, in the presence of 10 mM MgCl2, 100 μM Na3VO4, 1 mM NaF. 10 μl of the compound are added to 70 μl of kinase buffer containing 100 ng of KDR enzyme at 4° C. The reaction is triggered by adding 20 μl of solution containing 2 μg of substrate (SH2-SH3 fragment of PLCγ expressed in the form of a GST fusion protein), 2 μCi γ^33P[ATP] and 2 μM cold ATP. After incubation for 1 hour at 37° C., the reaction is stopped by adding 1 volume (100 μl) of 200 mM EDTA. The incubation buffer is removed and the wells are washed three times with 300 μl of PBS. The radioactivity is measured in each well using Top Count NXT radioactivity counter (Packard).
The background noise is determined by measuring the radioactivity in four different wells containing the radioactive ATP and the substrate alone.
A control for total activity is measured in four different wells containing all the reagents (γ^33P-[ATP], KDR and PLCγ substrate) but in the absence of compound.
The inhibition of the KDR activity with the compound of the invention is expressed as percentage inhibition of the control activity determined in the absence of compound.
The compound SU5614 (Calbiochem) (1 μM) is included in each plate as an inhibition control.

T1 sequence (Q05397 whole entry): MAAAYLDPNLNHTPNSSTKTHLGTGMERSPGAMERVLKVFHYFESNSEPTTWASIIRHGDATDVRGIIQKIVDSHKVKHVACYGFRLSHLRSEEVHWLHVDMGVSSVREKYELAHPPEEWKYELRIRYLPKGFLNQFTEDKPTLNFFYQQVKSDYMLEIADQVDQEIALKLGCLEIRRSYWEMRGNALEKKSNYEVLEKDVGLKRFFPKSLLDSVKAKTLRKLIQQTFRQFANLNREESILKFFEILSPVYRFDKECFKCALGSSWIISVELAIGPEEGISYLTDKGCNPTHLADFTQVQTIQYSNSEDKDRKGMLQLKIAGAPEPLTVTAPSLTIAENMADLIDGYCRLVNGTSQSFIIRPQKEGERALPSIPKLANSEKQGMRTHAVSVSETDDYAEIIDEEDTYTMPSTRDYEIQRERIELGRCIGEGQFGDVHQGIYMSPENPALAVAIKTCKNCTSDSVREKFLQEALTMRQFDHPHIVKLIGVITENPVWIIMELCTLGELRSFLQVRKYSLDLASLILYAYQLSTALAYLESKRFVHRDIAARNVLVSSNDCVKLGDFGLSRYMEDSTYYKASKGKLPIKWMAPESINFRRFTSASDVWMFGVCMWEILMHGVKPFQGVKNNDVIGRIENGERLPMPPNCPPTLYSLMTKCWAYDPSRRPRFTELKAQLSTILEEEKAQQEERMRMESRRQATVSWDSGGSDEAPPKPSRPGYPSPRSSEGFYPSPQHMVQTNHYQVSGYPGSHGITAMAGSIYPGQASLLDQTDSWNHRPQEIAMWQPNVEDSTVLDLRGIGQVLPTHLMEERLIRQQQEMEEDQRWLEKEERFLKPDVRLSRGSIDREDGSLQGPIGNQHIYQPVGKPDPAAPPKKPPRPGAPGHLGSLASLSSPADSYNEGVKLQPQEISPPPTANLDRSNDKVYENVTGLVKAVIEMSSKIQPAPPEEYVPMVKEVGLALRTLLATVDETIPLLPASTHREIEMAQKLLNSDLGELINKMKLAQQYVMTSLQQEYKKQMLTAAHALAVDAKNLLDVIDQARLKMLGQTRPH

Work on `COc1ccc(S(=O)(=O)Nc2ccc3[nH]nc(-c4ccccc4)c3c2)cc1` [Example 120, 4-Methoxy-N-(3-phenyl-1H-indazol-5-yl)-benzenesulfonamide] yielded an inhibition at 10 µM (human FAK) of 36%, an inhibition at 10 µM (Aurora2 kinase) of 52% and an inhibition at 10 µM (human KDR enzyme) of 69%.
`CC(C)(C)c1ccc(S(=O)(=O)Nc2ccc3[nH]nc(-c4ccccc4)c3c2)cc1` [Example 121, 4-tert-Butyl-N-(3-phenyl-1H-indazol-5-yl)-benzenesulfonamide] was tested, and the inhibition at 10 µM (human FAK) was 5%, the inhibition at 10 µM (Aurora2 kinase) was 27% and the inhibition at 10 µM (human KDR enzyme) was 39%.
`Cc1ccc(S(=O)(=O)Nc2ccc3[nH]nc(-c4ccccc4)c3c2)cc1` [Example 122, 4-Methyl-N-(3-phenyl-1H-indazol-5-yl)-benzenesulfonamide] was tested, and the inhibition at 10 µM (human FAK) was 23%, the inhibition at 10 µM (Aurora2 kinase) was 65% and the inhibition at 10 µM (human KDR enzyme) was 72%.
`CC(C)S(=O)(=O)Nc1ccc2[nH]nc(-c3ccccc3)c2c1` [Example 123, 1-Methyl-N-(3-phenyl-1H-indazol-5-yl)ethanesulfonamide] was tested, and the inhibition at 10 µM (human FAK) was 30%, the inhibition at 10 µM (Aurora2 kinase) was 82% and the inhibition at 10 µM (human KDR enzyme) was 62%.
Work on `CS(=O)(=O)Nc1ccc2[nH]nc(-c3ccccc3)c2c1` [Example 124, N-(3-Phenyl-1H-indazol-5-yl)-methanesulfonamide] yielded an inhibition at 10 µM (human FAK) of 16%, an inhibition at 10 µM (Aurora2 kinase) of 60% and an inhibition at 10 µM (human KDR enzyme) of 55%.
With `O=S(=O)(Cc1ccccc1)Nc1ccc2[nH]nc(-c3ccccc3)c2c1` [Example 125, 1-Phenyl-N-(3-phenyl-1H-indazol-5-yl)-methanesulfonamide] the inhibition at 10 µM (human FAK) was 17%, the inhibition at 10 µM (Aurora2 kinase) was 65% and the inhibition at 10 µM (human KDR enzyme) was 56%.
With `O=S(=O)(/C=C/c1ccccc1)Nc1ccc2[nH]nc(-c3ccccc3)c2c1` [Example 126, (E)-2-Phenyl-N-(3-phenyl-1H-indazol-5-yl)-ethylenesulfonamide] the inhibition at 10 µM (human FAK) was 7%, the inhibition at 10 µM (Aurora2 kinase) was 50% and the inhibition at 10 µM (human KDR enzyme) was 58%.
`CCS(=O)(=O)Nc1ccc2[nH]nc(-c3ccccc3)c2c1` [Example 127, N-(3-Phenyl-1H-indazol-5-yl)-ethanesulfonamide] showed an inhibition at 10 µM (human FAK) of 32%, an inhibition at 10 µM (Aurora2 kinase) of 78% and an inhibition at 10 µM (human KDR enzyme) of 63%.
`CCCS(=O)(=O)Nc1ccc2[nH]nc(-c3ccccc3)c2c1` [Example 128, N-(3-Phenyl-1H-indazol-5-yl)propanesulfonamide] gave an inhibition at 10 µM (human FAK) of 55%, an inhibition at 10 µM (Aurora2 kinase) of 87% and an inhibition at 10 µM (human KDR enzyme) of 49%.
Molecule `N#Cc1ccc(S(=O)(=O)Nc2ccc3[nH]nc(-c4ccccc4)c3c2)cc1` [Example 143, 4-Cyano-N-(3-phenyl-1H-indazol-5-yl)-benzenesulfonamide] has an inhibition at 10 µM (human FAK) of 23%, an inhibition at 10 µM (Aurora2 kinase) of 64% and an inhibition at 10 µM (human KDR enzyme) of 87%.
For `CCCCOc1ccc(S(=O)(=O)Nc2ccc3[nH]nc(-c4ccccc4)c3c2)cc1` [Example 145, 4-Butoxy-N-(3-phenyl-1H-indazol-5-yl)-benzenesulfonamide], the inhibition at 10 µM (human FAK) was 0%, the inhibition at 10 µM (Aurora2 kinase) was 26% and the inhibition at 10 µM (human KDR enzyme) was 14%.
`CC(=O)Nc1ccc(S(=O)(=O)Nc2ccc3[nH]nc(-c4ccccc4)c3c2)cc1Cl` [Example 146, N-[2-Chloro-4-(3-phenyl-1H-indazol-5-ylsulfamoyl)phenyl]-acetamide] gave an inhibition at 10 µM (human FAK) of 14%, an inhibition at 10 µM (Aurora2 kinase) of 57% and an inhibition at 10 µM (human KDR enzyme) of 47%.
Molecule `O=S(=O)(Nc1ccc2[nH]nc(-c3ccccc3)c2c1)c1ccc(-c2ccon2)s1` [Example 150, N-(3-Phenyl-1H-indazol-5-yl)-(5-isoxazol-3-ylthiophene)-2-sulfonamide] has an inhibition at 10 µM (human FAK) of 3%, an inhibition at 10 µM (Aurora2 kinase) of 82% and an inhibition at 10 µM (human KDR enzyme) of 75%.
`O=[N+]([O-])c1ccccc1CS(=O)(=O)Nc1ccc2[nH]nc(-c3ccccc3)c2c1` [Example 151, C-(2-Nitrophenyl)-N-(3-phenyl-1H-indazol-5-yl)-methanesulfonamide] gave an inhibition at 10 µM (human FAK) of 33%, an inhibition at 10 µM (Aurora2 kinase) of 84% and an inhibition at 10 µM (human KDR enzyme) of 63%.
For `Cc1c(S(=O)(=O)Nc2ccc3[nH]nc(-c4ccccc4)c3c2)sc2ccc(Cl)cc12` [Example 153, N-(3-Phenyl-1H-indazol-5-yl)-(5-chloro-3-methyl-benzo[b]thiophene)-2-sulfonamide], the inhibition at 10 µM (human FAK) was 0%, the inhibition at 10 µM (Aurora2 kinase) was 25% and the inhibition at 10 µM (human KDR enzyme) was 24%.
`O=S(=O)(Nc1ccc2[nH]nc(-c3ccccc3)c2c1)c1cccc(-c2ccccc2)c1` [Example 157, N-(3-Phenyl-1H-indazol-5-yl)-biphenyl-3-sulfonamide] gave an inhibition at 10 µM (human FAK) of 0%, an inhibition at 10 µM (Aurora2 kinase) of 38% and an inhibition at 10 µM (human KDR enzyme) of 63%.
For `O=S(=O)(Nc1ccc2[nH]nc(-c3ccccc3)c2c1)c1ccc(OC(F)(F)F)cc1` [Example 160, 4-Trifluoromethoxy-N-(3-phenyl-1H-indazol-5-yl)benzenesulfonamide], the inhibition at 10 µM (human FAK) was 3%, the inhibition at 10 µM (Aurora2 kinase) was 26% and the inhibition at 10 µM (human KDR enzyme) was 51%.
`COc1ccc(Cl)cc1-c1n[nH]c2ccc(NS(=O)(=O)c3ccccc3S(C)(=O)=O)cc12` [Example 215, N-[3-(5-Chloro-2-methoxy-phenyl)-1H-indazol-5-yl]-2-methanesulfonyl-benzenesulfonamide] was tested, and the inhibition at 10 µM (human FAK) was 97%, the inhibition at 10 µM (Aurora2 kinase) was 86% and the inhibition at 10 µM (human KDR enzyme) was 39%.
